Laboratory results published in patent publication US9650664B2, “Use of photocleavable compounds” (FEMTONICS KFT, priority 2011, dated 2017).

How the values were obtained:
[1] = system: hippocampal pyramide cell; experiment: two-photon stimulation of a hippocampal pyramide cell (Example 20); format: cell-based, Wistar rats; details: for Calcium tranziens by two-photon stimulation / somatically recorded EPSP by two-photon stimulation: 2.5 mM, 740 nm, with L-glutamic acid dehydrogenase and NADP; for toxicity: pyramid cell response to 500 ms -100, 0 and 125 pA current injection, waveform after stimulation
Method: (§1) Acute hippocampus slices were prepared from 16-20 day old Wistar rats using isoflurane anaesthesia followed by swift decapitation. The process was in accordance with the Hungarian Act of Animal Care and Experimentation (1998. XXVIII, section 243). Coronal (300 μm) brain slices were cut with a vibratome and stored at room temperature in artificial cerebrospinal fluid (ACSF). The composition of the ACSF solution is described above.
(§2) Hippocampus neurons in CA1 stratum radiatum near the border of the stratum lacunosum-moleculare were visualized using 900 nm infrared oblique illumination. Current-clamp recordings were made at 32° C. (MultiClamp 700B, Digidata 1440; Molecular Devices, Sunnyvale, Calif., USA) with glass electrodes (6-9 MΩ) filled with (in mM): 125 K-gluconate, 20 KCl, 10 HEPES, 10 Di-Tris-salt phosphocreatine, 0.3 Na-GTP, 4 Mg-ATP, 10 NaCl, 0.06 Oregon Green BAPTA-1 (OGB-1) and biocytin. Cells with a resting membrane potential more negative than −50 mV were accepted. The recorded cells were classified as nonpyramidal cells according to their electrophysiological properties.
a.) After achieving the whole-cell mode and filling the interneurons with 60 μM OGB-1, the bath solution was exchanged to ACSF containing MNI-Glu-TFA [2.5 mM, Tocris]. Photolysis of MNI-Glu-TFA was performed with 710-830 nm ultrafast, pulsed laser light (Mai Tai HP Deep See, SpectraPhysics, Mountain View, Calif.). The intensity of the uncaging laser beam was controlled with an electro-optical modulator (Model 350-80 LA, Conoptics). Dispersion compensation was set to have maximal response at the depth of uncaging (50-80 μm from surface). The uncaging laser beam was coupled into the imaging optical pathway with a dichroic mirror (custom laser combiner, z750bcm; Chroma Technology Corp, Rockingham, USA). Chromatic aberration was compensated at the focal plane. Radial and axial beam (imaging and photochemical stimulating) alignment errors were held below 100 nm and 300 nm, respectively. Imaging was interleaved with two-photon glutamate uncaging periods, when galvanometers jumped to the maximum 15-25 selected locations (<60 μs jump time) and returned back to the 3D or 2D trajectory thereafter. The position of uncaging sites was finely adjusted according to background images taken. Photolysis of caged glutamate was performed in “clustered” (0.8±0.1 μm distance between inputs) patterns along the dendrite. The single spot uncaging time and laser intensity was set to reproduce uEPSPs and mEPSPs induced by the local application of high osmolar external solution at similar distances from the soma (amplitude of unitary gluEPSP: 0.56±0.09 mV, mEPSPs: 0.58±0.1, uEPSP: 0.55±0.12; exposure time 0.2-0.5 ms/input). Small drifts of the sample (on the order of 0.1-0.2 μm) during the mapping were compensated manually according to regularly taken background images. b.) After the test the perfusion rate was set to 10 ml/min in order to increase the exchange rate of ACSF containing 2.5 mM DNI-Glu*TFA used in the subsequent test. The test was repeated with the same setting of the equipment on the same dendrite section.
The experiment was carried out according to Example 16 with the difference that the cell was filled with calcium sensitive dye (Fluo4) and anatomical dye (ALEXA 594). The experiments were carried out in accordance of the Example 16 with the following differences: after patch clamp the perfusion solution exchange to ACSF containing 2.5 mM iDMPO-DNI-Glutamic acid*2TFA and, or ACSF containing 2.5 mM iDMBO-DNI-Glutamic acid*2TFA, 0.1-0.2 units/ml of L-glutamic acid dehydrogenase and β-Nicotinamide adenine dinucleotide phosphate for the second measurement. The β-Nicotinamide adenine dinucleotide phosphate was kept in a concentration of 50-100 μM during the experiments. All chemical agents (cage compound, dehidrogenase, NADP apply into the bath). During the experiments the evaporation loss of dH2O was continuously refilled. […]

[2] = weight increase on storage (hygroscopicity); format: physicochemical; details: 25° C. 50% relative humidity, after 72 hours storage
Method: We measured the weight increase of MNI-Glubase and its salts with hydrochloric and trifluoroacetic acid at 25° C. 50% relative humidity.

[3] = system: Hippocampus neurons in CA1 stratum radiatum; experiment: two-photon uncaging on acute hippocampus slices with neutralizing agents (EPSP, Ca2+ transient); format: cell-based, Wistar rats; details: 2.5 mM
Method: as §1, §2
Two-photon imaging started 15-20 minutes after attaining the whole-cell configuration on a two-photon laser-scanning system (Femto2D, Femtonics Ltd., Budapest) using femtosecond lasers (830-850 nm), Mai Tai HP, SpectraPhysics, Mountain View, Calif.). […]

[4] = system: Hippocampus neurons in CA1 stratum radiatum; experiment: spontaneous activity of the cell (EPSP frequency), voltage-clamp test; format: cell-based, Wistar rats
Method: as §1, §2
A.) Using the test setup of the two-photon excitation process according to Example 16 spontaneous potential changes of the observed cell was measured.
At the beginning of the experiment the control level of potential changes (EPSP) was measured in the absence of DNI-Glu. The measured fluctuation is shown in FIG. 1/A. Following the test DNI-Glu (2.5 mM) was added to the measuring cell. The measured fluctuation is shown in FIG. 1/B. Then 0.1-0.2 unit/ml L-glutamic acid dehydrogenase enzyme and 200 μM NADP (β-Nicotinamide adenine dinucleotide phosphate) were added.
B.) The experiment described in point A.) was repeated 8 times using other cells in each case. The column diagram can be seen on the left side. The average of the control level is shown in column a.). The average of the change due to the caged compound is shown in column b.), while the average level after the addition of the enzyme in column c.).

[5] = according to WO2008/094922; cited from earlier work
hippocampus neurons = details: according to WO2008/094922; cited from earlier work
[6] = spontaneous hydrolysis in ACSF; format: physicochemical
Method: […] The solution was sampled at the beginning of the storage and 48 hours later and 4-methoxy-5,7-dinitro-2,3-dihydro-1H-indole was identified from the hydrolysis products by using LCMS method. The compound was identified by the peak of its molecule weight at 240. The sample taken after 48 hours was measured with HPLC equipment. Without correction 46.7% of DNI-Glu*TFA hydrolysed.

## di-trifluoroacetic acid salt of 2-amino-1-(4′-dimethylamino-isobutoxy-5′,7′-dinitro-2′,3′-dihydro-indol-1′-yl)-5-oxo-pentanoic [iDMBO-DNI-Glu TFA]
[1]
  Calcium tranziens by two-photon stimulation: the same as Panel (D)
  somatically recorded EPSP by two-photon stimulation: the same as Panel (D)
  toxicity: not detected

## COc1ccc([N+](=O)[O-])c2c1CCN2C(=O)CC[C@H](N)C(=O)O.Cl [MNI-Glu HCl salt]
[2]
  weight increase: 13.6%

## COc1ccc([N+](=O)[O-])c2c1CCN2C(=O)CCC(N)C(=O)O (stereo not drawn) [MNI-Glubase, 2-amino-5-(4-methoxy-7-nitro-2,3-dihydro-indol-1-yl)-5-oxo-pentanoic acid]
[2]
  weight increase: 20%

## COc1ccc([N+](=O)[O-])c2c1CCN2C(=O)CCC(N)C(=O)O.O=C(O)C(F)(F)F (stereo not drawn) [MNI-Glu trifluoroacetic acid salt]
[2]
  weight increase: 4%

## COc1c([N+](=O)[O-])cc([N+](=O)[O-])c2c1CCN2C(=O)CCC(N)C(=O)O (stereo not drawn) [DNI-Glu, 2-amino-5-(4′-methoxy-5′,7′-dinitro-2′,3′-dihydro-indol-1-yl)-5-oxo-pentanoic acid]
[3]; FIG. 2/A
  excitatory postsynaptic potential (EPSP) resulted by irradiation, compared with MNI-Glu: significantly higher
[3]; FIG. 2/B
  Ca2+ transient signal as a response of the irradiation, compared with MNI-Glu: significantly higher
[4]; DNI-Glu 2.5 mM, then L-glutamic acid dehydrogenase and NADP
  frequency of EPSP / spontaneous responses after addition of glutamate dehydrogenase enzyme: restored to the control level
[4]; DNI-Glu 2.5 mM, enzyme = 0.1-0.2 unit/ml L-glutamic acid dehydrogenase and 200 μM NADP, repeated 8 times, other cells
  EPSP Frequency MEAN: 3.87 Hz
[4]; DNI-Glu added, no enzyme
  frequency of EPSP on addition to the perfusion solution: increased
[5]
  dissolution in physiological solutions: so bad
Hippocampus neurons
  electrical signals in two-photon irradiation experiments: no electrical signals

## di-trifluoroacetic acid salt of 2-amino-1-(4′-dimethylamino-isopropoxy-5′,7′-dinitro-2′,3′-dihydro-indol-1′-yl)-5-oxo-pentanoic [iDMPO-DNI-Glu TFA]
[1]
  Calcium tranziens by two-photon stimulation: could evoke
  somatically recorded EPSP by two-photon stimulation: could evoke
  toxicity: not detected

## COc1c([N+](=O)[O-])cc([N+](=O)[O-])c2c1CCN2C(=O)CCC(N)C(=O)O.O=C(O)C(F)(F)F (stereo not drawn) [DNI-Glu*TFA, trifluoroacetic acid salt of 2-amino-5-(4′-methoxy-5′,7′-dinitro-2′,3′-dihydro-indol-1′-yl)-5-oxo-pentanoic acid]
[6]; 0.06 mg/ml in ACSF, stored at 32° C., 48 hours, HPLC, without correction
  hydrolysed: 46.7%
[6]; in 12 ml of ACSF
  speed of the formation of the glutamic acid: 1 µmol/min
